Source: patent US9266939B2, “Compositions comprising natriuretic peptides and methods of use thereof” (Alexion Pharmaceuticals, Inc., priority 2010, dated 2016)
Several values for one entry are separate records, joined by “and”; a condition that tells them apart may be missing. Equal values may be shown once. Read-outs that look alike come from different tables or passages of the source. Bridge positions count the residues as written; N and C are the ends. Ends that are not written are not given here. Peptide text beside a SMILES is read from it.

What was measured:
NPR-B [1] = target: T1, NPR-B (Homo sapiens, UniProt P20594); assay: Membrane guanylyl cyclase (cGMP) assay, NPR-B; assay type: biochemical
T1 sequence (P20594 23-1047): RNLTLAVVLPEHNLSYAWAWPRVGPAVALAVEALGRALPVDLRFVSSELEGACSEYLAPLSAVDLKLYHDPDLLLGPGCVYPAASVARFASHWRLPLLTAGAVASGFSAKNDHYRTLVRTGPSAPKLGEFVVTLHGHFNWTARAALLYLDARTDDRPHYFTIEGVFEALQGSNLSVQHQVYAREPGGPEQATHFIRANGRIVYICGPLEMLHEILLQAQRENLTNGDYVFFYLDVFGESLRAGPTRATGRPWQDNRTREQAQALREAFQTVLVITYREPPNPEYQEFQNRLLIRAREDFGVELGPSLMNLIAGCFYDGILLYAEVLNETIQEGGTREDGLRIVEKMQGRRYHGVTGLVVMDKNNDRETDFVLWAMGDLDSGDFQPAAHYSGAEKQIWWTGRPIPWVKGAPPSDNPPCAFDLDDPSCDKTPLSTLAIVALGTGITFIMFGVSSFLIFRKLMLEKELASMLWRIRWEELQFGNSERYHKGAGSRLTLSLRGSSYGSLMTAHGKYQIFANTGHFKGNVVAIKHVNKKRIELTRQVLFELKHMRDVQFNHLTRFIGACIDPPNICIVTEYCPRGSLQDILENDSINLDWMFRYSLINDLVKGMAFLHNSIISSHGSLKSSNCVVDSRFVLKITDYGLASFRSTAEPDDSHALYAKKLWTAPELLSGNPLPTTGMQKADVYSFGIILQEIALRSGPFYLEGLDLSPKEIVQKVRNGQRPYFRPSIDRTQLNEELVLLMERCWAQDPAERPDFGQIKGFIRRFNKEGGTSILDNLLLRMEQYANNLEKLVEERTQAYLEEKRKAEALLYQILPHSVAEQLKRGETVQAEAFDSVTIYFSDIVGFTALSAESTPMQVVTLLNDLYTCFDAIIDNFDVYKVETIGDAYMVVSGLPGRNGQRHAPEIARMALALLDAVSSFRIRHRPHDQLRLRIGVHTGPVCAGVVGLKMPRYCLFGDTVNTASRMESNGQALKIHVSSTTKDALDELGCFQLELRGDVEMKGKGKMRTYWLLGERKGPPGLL

NPR-A = NPR-A (Homo sapiens, UniProt P16066); assay type: biochemical
Chain of NPR-A (P16066 33-1061): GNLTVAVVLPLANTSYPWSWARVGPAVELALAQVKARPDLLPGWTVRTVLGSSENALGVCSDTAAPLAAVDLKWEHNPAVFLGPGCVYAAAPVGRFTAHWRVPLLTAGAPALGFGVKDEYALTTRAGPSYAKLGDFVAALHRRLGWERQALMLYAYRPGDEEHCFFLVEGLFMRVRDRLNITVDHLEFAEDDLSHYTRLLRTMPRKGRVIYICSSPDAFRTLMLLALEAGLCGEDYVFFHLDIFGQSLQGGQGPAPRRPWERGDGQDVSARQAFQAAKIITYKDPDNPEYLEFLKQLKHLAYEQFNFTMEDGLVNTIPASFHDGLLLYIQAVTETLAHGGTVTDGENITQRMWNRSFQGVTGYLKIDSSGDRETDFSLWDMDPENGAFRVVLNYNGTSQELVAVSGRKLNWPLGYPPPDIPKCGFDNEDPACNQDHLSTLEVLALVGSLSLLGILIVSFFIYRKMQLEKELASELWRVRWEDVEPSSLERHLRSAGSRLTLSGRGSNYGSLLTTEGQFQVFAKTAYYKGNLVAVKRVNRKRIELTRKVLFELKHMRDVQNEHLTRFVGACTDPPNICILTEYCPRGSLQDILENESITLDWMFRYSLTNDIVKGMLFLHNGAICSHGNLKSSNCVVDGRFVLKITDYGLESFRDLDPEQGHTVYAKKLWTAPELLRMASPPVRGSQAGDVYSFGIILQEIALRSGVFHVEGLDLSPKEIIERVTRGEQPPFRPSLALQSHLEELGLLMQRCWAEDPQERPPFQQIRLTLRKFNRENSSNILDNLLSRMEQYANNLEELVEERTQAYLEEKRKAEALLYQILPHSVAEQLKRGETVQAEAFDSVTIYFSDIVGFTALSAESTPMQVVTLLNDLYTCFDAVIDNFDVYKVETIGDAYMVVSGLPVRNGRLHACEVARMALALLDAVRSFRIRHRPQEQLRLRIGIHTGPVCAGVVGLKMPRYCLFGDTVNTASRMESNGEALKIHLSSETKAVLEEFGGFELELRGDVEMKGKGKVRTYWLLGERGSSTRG

[2] = target: T2, neutral endopeptidase (NEP) (Homo sapiens, UniProt P08473)
T2 sequence (P08473 whole entry): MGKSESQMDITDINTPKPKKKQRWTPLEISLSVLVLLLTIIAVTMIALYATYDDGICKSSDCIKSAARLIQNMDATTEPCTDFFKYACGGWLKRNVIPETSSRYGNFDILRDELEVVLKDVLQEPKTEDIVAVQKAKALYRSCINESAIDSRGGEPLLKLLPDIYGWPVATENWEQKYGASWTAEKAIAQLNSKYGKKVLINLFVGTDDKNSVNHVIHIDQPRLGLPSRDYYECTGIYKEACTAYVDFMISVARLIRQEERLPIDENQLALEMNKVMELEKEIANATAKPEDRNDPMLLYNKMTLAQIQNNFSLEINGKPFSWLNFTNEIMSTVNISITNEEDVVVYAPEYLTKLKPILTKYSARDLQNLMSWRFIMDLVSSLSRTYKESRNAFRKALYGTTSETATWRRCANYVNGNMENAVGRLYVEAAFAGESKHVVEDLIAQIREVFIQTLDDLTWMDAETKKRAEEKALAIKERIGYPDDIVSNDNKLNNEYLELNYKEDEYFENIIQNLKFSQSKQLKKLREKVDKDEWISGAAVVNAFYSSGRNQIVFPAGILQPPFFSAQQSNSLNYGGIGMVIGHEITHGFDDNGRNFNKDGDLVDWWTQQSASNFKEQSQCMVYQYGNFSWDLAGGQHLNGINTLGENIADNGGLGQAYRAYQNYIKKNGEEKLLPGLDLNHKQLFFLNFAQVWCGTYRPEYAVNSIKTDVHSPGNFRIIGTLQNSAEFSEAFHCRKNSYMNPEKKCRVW

[3] = target: T2, neutral endopeptidase (NEP); assay: in vitro; settings: isolated enzyme neprilysin, pH 7.5
NPR-B [4] = target: T1, NPR-B; assay: Whole cell guanylyl cyclase (cGMP) assay, NPR-B; assay type: cell-based; parameters: expressed in transfected cells; settings: for Emax: read-out: % Efficacy
Description: HEK293S cells in a semi-confluent 75 cm2 flask are transfected with 30 μg of plasmid DNA coding for the appropriate receptor, e.g., human NPR-B or NPR-A, using Lipofectamine-2000CD. Alternatively, a stable polyclonal HEK293 S cell line expressing either human NPR-B or NPR-A was used. 24 hours after transfection, cells are trypsinized and plated into 48-well plates at 1×10^5 cells/well. Guanylyl cyclase assay is carried out 24 hours post-plating. Cells are first incubated for 30 minutes at 37° C. with serum-free DMEM medium. Then, they are incubated in triplicate with or without increasing concentrations of reference or test proteins in serum-free DMEM supplemented with 1 mM IBMX and 0.5% BSA, at 37° C. for 30 minutes to one hour. CNP serves as a suitable reference for NPR-B, while ANP is a suitable reference for NPR-A. Finally, cells are washed with ice-cold PBS and solubilized in lysis buffer from Catchpoint cGMP kit (Molecular devices). Concentrations of cGMP in lysate are determined using the Catchpoint cGMP kit. Dose-response curves are analysed with GraphPad Prism 5 software using non-linear regression with four-parameter logistic equation.

| Molecule | Approximate fold gain in selectivity versus CDNP (NPR-B [1]) | Approximate fold selectivity NPR-B versus NPR-A (NPR-B [1]) [fold] | NPR-B selective efficacy gain (NPR-B [1]) [%] | % loss in efficacy versus CDNP (NPR-A) [%] | sensitivity to NEP degradation [2] | % of control after 240 min [2] [%] | Resist NEP degradation (No/Yes) [2] | remaining at 4 h [3] [%] | EC50 Ratio versus CNP22 (NPR-B [4]) | Rescue Ratio versus CNP22 (NPR-B [4]) | EC50 (NPR-B [4]; EC50) [µM] | EC50 (NPR-B [4]; EC50 on NPR-B) [µM] | Rescue range (NPR-B [4]; agonist concentration producing cGMP as 2.4 nM (lower) and 14 nM (high) CNP22) [nM] | Rescue Ratio Average (NPR-B [4]; peptides, NPR-B whole cell cGMP assay) | Emax (NPR-B [4]) [%] | Rescue Ratio Average (NPR-B [4]) | Rescue range (NPR-B [4]) [nM] | % efficacy versus CDNP on NPR-B (NPR-B [1]) [%] | % efficacy versus CDNP on NPR-A (NPR-A) |
| --- | --- | --- | --- | --- | --- | --- | --- | --- | --- | --- | --- | --- | --- | --- | --- | --- | --- | --- | --- |
| CC[C@H](C)[C@@H]1NC(=O)[C@H](CCCNC(=N)N)NC(=O)[C@H](CC(=O)O)NC(=O)[C@H](CC(C)C)NC(=O)[C@H](CCCCN)NC(=O)[C@H](CC(C)C)NC(=O)CNC(=O)[C@H](Cc2ccccc2)NC(=O)[C@@H](NC(=O)CNC(=O)[C@H](CCCCN)NC(=O)[C@H](CO)NC(=O)[C@H](CC(C)C)NC(=O)CN)CSSC[C@@H](C(=O)N2CCC[C@H]2C(=O)N[C@@H](CO)C(=O)N[C@@H](CO)C(=O)N[C@@H](C)C(=O)N[C@@H](CC(=O)O)C(=O)N2CCC[C@H]2C(=O)N[C@@H](CCCNC(=N)N)C(=O)N2CCC[C@H]2C(=O)N[C@@H](CC(N)=O)C(=O)N[C@@H](C)C(=O)N2CCC[C@H]2C(=O)N[C@@H](CO)C(=O)N[C@H](C(=O)N[C@@H](CO)C(=O)N[C@@H](C)C(=O)O)[C@@H](C)O)NC(=O)CNC(=O)[C@H](CC(C)C)NC(=O)CNC(=O)[C@H](CO)NC(=O)[C@H](CCSC)NC(=O)[C@H](CO)NC(=O)CNC1=O [CDNP-SAD] (HELM PEPTIDE1{G.L.S.K.G.C.F.G.L.K.L.D.R.I.G.S.M.S.G.L.G.C.P.S.S.A.D.P.R.P.N.A.P.S.T.S.A}$PEPTIDE1,PEPTIDE1,6:R3-22:R3$$$V2.0) | 28 fold and 28.5 fold | 83.2 | 27 | 27 | comparable NEP sensitivity |  |  |  |  |  |  |  |  |  |  |  |  |  |  |
| CC[C@H](C)[C@@H]1NC(=O)[C@H](CCCNC(=N)N)NC(=O)[C@H](CC(=O)O)NC(=O)[C@H](CC(C)C)NC(=O)[C@H](CCCCN)NC(=O)[C@H](CC(C)C)NC(=O)CNC(=O)[C@H](Cc2ccccc2)NC(=O)[C@@H](NC(=O)CNC(=O)[C@H](CCCCN)NC(=O)[C@H](CO)NC(=O)[C@H](CC(C)C)NC(=O)CN)CSSC[C@@H](C(=O)O)NC(=O)CNC(=O)[C@H](CC(C)C)NC(=O)CNC(=O)[C@H](CO)NC(=O)[C@H](CCSC)NC(=O)[C@H](CO)NC(=O)CNC1=O [CNP22, reference compound] |  |  |  |  |  | 0 | No | 0 | 1.00 | 1 | 0.0147 ± 0.0034 | 0.00487 | 2.4 to 14 | 1 | 100 |  |  |  |  |
| EEEEEESGGGGSGGGKGANKQGLSKGCFGLKLDRIGSMSGLGC (disulfide 27-43) [C6(E6) [BC6]] |  |  |  |  |  |  | Yes | 98 | 45.7 | 55-70 | 0.672 |  |  |  | 88 | 63 | 132 to 973 |  |  |
| GLSKGCFGLKLDRIGSMSGLGCGGGGSGGGGSGGGGDDDDDD (disulfide 6-22) [CNP-14AAlinker-D6 [C4]] |  |  |  |  |  | 75 | Yes | 75 | 146 | 375-714 | 2.14 |  |  |  | 156 | 545 | 900 to 10000 |  |  |
| CC[C@H](C)[C@@H]1NC(=O)[C@H](CCCNC(=N)N)NC(=O)[C@H](CC(=O)O)NC(=O)[C@H](CC(C)C)NC(=O)[C@H](CCCCN)NC(=O)[C@H](CC(C)C)NC(=O)CNC(=O)[C@H](Cc2ccccc2)NC(=O)[C@@H](NC(=O)CNC(=O)[C@H](CCCCN)NC(=O)[C@H](CO)NC(=O)[C@H](CC(C)C)NC(=O)CN)CSSC[C@@H](C(=O)N2CCC[C@H]2C(=O)N[C@@H](CO)C(=O)N[C@@H](CO)C(=O)N[C@@H](CCCNC(=N)N)C(=O)N[C@@H](C)C(=O)N2CCC[C@H]2C(=O)N[C@@H](CCCNC(=N)N)C(=O)N2CCC[C@H]2C(=O)N[C@@H](CC(N)=O)C(=O)N[C@@H](C)C(=O)N2CCC[C@H]2C(=O)N[C@@H](CO)C(=O)N[C@H](C(=O)N[C@@H](CO)C(=O)N[C@@H](C)C(=O)O)[C@@H](C)O)NC(=O)CNC(=O)[C@H](CC(C)C)NC(=O)CNC(=O)[C@H](CO)NC(=O)[C@H](CCSC)NC(=O)[C@H](CO)NC(=O)CNC1=O [CDNP-SRA] (HELM PEPTIDE1{G.L.S.K.G.C.F.G.L.K.L.D.R.I.G.S.M.S.G.L.G.C.P.S.S.R.A.P.R.P.N.A.P.S.T.S.A}$PEPTIDE1,PEPTIDE1,6:R3-22:R3$$$V2.0) | 1.2 fold and 1.23 fold | 3.59 | 82 | 82 | comparable NEP sensitivity |  |  |  |  |  |  |  |  |  |  |  |  | 118 | 36% |
| EEEEEESGGGGSGGGKGANQQGLSKGCFGLKLDRIGSMSGLGC (disulfide 27-43) [C9(E6) [BC9]] |  |  |  |  |  |  | Yes | 98 | 79.3 | 76-97 | 1.17 |  |  |  | 95 | 87 | 183 to 1358 |  |  |
| EEEEEESGGGGSGGGQGANQQGLSKGCFGLKLDRIGSMSGLGC (disulfide 27-43) [C5(E6) [BC5]] |  |  |  |  |  |  | Yes | 100 | 161 |  | 2.36 |  |  |  | 96 | 138 | 334 to 1899 |  |  |
| CC[C@H](C)[C@@H]1NC(=O)[C@H](CCCNC(=N)N)NC(=O)[C@H](CC(=O)O)NC(=O)[C@H](CC(C)C)NC(=O)[C@H](CCCCN)NC(=O)[C@H](CC(C)C)NC(=O)CNC(=O)[C@H](Cc2ccccc2)NC(=O)[C@@H](NC(=O)CNC(=O)[C@H](CCCCN)NC(=O)[C@H](CO)NC(=O)[C@H](CC(C)C)NC(=O)CN)CSSC[C@@H](C(=O)N2CCC[C@H]2C(=O)N[C@@H](CO)C(=O)N[C@@H](CO)C(=O)N[C@@H](C)C(=O)N[C@@H](C)C(=O)N2CCC[C@H]2C(=O)N[C@@H](CCCNC(=N)N)C(=O)N2CCC[C@H]2C(=O)N[C@@H](CC(N)=O)C(=O)N[C@@H](C)C(=O)N2CCC[C@H]2C(=O)N[C@@H](CO)C(=O)N[C@H](C(=O)N[C@@H](CO)C(=O)N[C@@H](C)C(=O)O)[C@@H](C)O)NC(=O)CNC(=O)[C@H](CC(C)C)NC(=O)CNC(=O)[C@H](CO)NC(=O)[C@H](CCSC)NC(=O)[C@H](CO)NC(=O)CNC1=O [CDNP-SAA] (HELM PEPTIDE1{G.L.S.K.G.C.F.G.L.K.L.D.R.I.G.S.M.S.G.L.G.C.P.S.S.A.A.P.R.P.N.A.P.S.T.S.A}$PEPTIDE1,PEPTIDE1,6:R3-22:R3$$$V2.0) | 15 fold and 14.9 fold | 43.5 | 69 | 69 | slightly more sensitive to NEP than CDNP |  |  |  |  |  |  |  |  |  |  |  |  |  | 34-69% |
| EEEEEESGGGGSGGGGSGGGGGLSKGCFGLKLDRIGSMSGLGC (disulfide 27-43) [C1(E6) [BC1]] |  |  |  |  |  |  | Yes | 99 | 118 | 120-124 | 1.74 |  |  |  | 97 | 122 | 289 to 1733 |  |  |
